Measurements taken from PubChem BioAssay (NCI).
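A five-concentration, 48-hour dose response in 96-well plates underlies each endpoint, interpolated linearly between surrounding concentrations. TGI: total growth inhibition.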

Experiments:
Test in all cases: NCI tumour cell line growth inhibition, 48 h
T-47D breast = test system: T-47D breast
SN12C renal = test system: SN12C renal
M14 melanoma = test system: M14 melanoma
NCI-H522 lung = test system: NCI-H522 lung
A549 NSCLC = test system: A549 NSCLC
A498 renal = test system: A498 renal
HOP-62 NSCLC = test system: HOP-62 NSCLC
U251 CNS = test system: U251 CNS
HCT-116 colon = test system: HCT-116 colon
COLO 205 colon = test system: COLO 205 colon
UACC-257 melanoma = test system: UACC-257 melanoma
MOLT-4 leukemia = test system: MOLT-4 leukemia
OVCAR-3 ovarian = test system: OVCAR-3 ovarian
OVCAR-8 ovarian = test system: OVCAR-8 ovarian
CCRF-CEM leukemia = test system: CCRF-CEM leukemia
786-0 renal = test system: 786-0 renal
RXF 393 renal = test system: RXF 393 renal
ACHN renal = test system: ACHN renal
MDA-MB-231 breast = test system: MDA-MB-231 breast
OVCAR-4 ovarian = test system: OVCAR-4 ovarian

Row | Structure (SMILES) | TGI (T-47D breast) [µM] | TGI (SN12C renal) [µM] | TGI (M14 melanoma) [µM] | TGI (NCI-H522 lung) [µM] | TGI (A549 NSCLC) [µM] | TGI (A498 renal) [µM] | TGI (HOP-62 NSCLC) [µM] | TGI (U251 CNS) [µM] | TGI (HCT-116 colon) [µM] | TGI (COLO 205 colon) [µM] | TGI (UACC-257 melanoma) [µM] | TGI (MOLT-4 leukemia) [µM] | TGI (OVCAR-3 ovarian) [µM] | TGI (OVCAR-8 ovarian) [µM] | TGI (CCRF-CEM leukemia) [µM] | TGI (786-0 renal) [µM] | TGI (RXF 393 renal) [µM] | TGI (ACHN renal) [µM] | TGI (MDA-MB-231 breast) [µM] | TGI (OVCAR-4 ovarian) [µM]
1 | O=C(NCCCl)N(O)C(=O)Nc1ccccc1 | > 100 | > 100 | > 100 | > 100 | > 100 | > 100 | > 100 | > 100 | > 100 | > 100 | > 100 | > 100 | > 100 | > 100 | > 100 | > 100 | > 100 | > 100 | > 100 | > 100
2 | CCOC(=O)C1(C/C=C/CBr)CCc2ccccc2C1=O (centres undefined) | 34.8 | 34.8 | 28.2 | 31.9 | 30.6 | 38 | 30.3 | 31.2 | 26.2 | 42.6 | 34.8 | > 100 | – | 36.7 | > 100 | 31.2 | 18.4 | 29.1 | 56 | 29.7
3 | O=C(Nc1nncs1)NS(=O)(=O)n1c(=S)sc2ccccc21 | > 100 | > 100 | > 100 | > 100 | > 100 | > 100 | > 100 | > 100 | > 100 | > 100 | > 100 | > 100 | > 100 | > 100 | 75.7 | > 100 | > 100 | > 100 | > 100 | > 100
4 | O=C1NC(=O)C(c2c[nH]c3ccccc23)=C1c1cn(C(c2ccccc2)(c2ccccc2)c2ccccc2)cn1 | 23.7 | 20.3 | 16.3 | 22.9 | 12.8 | 18.3 | – | 15.3 | 13.1 | 15 | 26.6 | 7.39 | 19.6 | 28.2 | 17.4 | 22.3 | 36.1 | 26.6 | 25.7 | 17.5
5 | N#CC1=C(Nc2ccccc2)SC=C(c2ccccc2)NC1=NCc1ccccc1 | > 100 | > 100 | > 100 | > 100 | > 100 | > 100 | > 100 | > 100 | > 100 | > 100 | – | > 100 | > 100 | > 100 | – | > 100 | > 100 | > 100 | > 100 | > 100
6 | CN(C)c1ccc(/C=N\NC(=O)Nc2cccc3ccccc23)cc1 | 19.8 | 31.4 | > 100 | 14 | > 100 | 64.8 | 33.1 | 39.5 | 65.2 | > 100 | 34.6 | > 100 | – | > 100 | > 100 | 51.5 | > 100 | 38.5 | 32.9 | 40.4
7 | Cc1ccc(-c2n[nH]c(=O)n2/N=C\c2ccc([N+](=O)[O-])cc2)cc1 | > 100 | > 100 | > 100 | > 100 | > 100 | > 100 | > 100 | > 100 | > 100 | > 100 | > 100 | > 100 | > 100 | > 100 | > 100 | > 100 | > 100 | > 100 | > 75.9 | > 100
8 | CCOC(=O)/C=C/[C@H](O[Si](CC)(CC)CC)C(C)(C)C | > 100 | > 100 | – | > 100 | > 100 | > 100 | > 100 | 65.8 | > 100 | > 100 | > 100 | > 100 | > 100 | > 100 | 48.6 | > 100 | > 100 | > 100 | > 100 | > 100
9 | O=c1cc(CO)oc(C(O)c2ccccc2)c1O (centres undefined) | > 100 | > 100 | > 100 | > 100 | > 100 | > 100 | > 100 | > 100 | > 100 | > 100 | > 100 | > 100 | > 100 | > 100 | – | > 100 | > 100 | > 100 | > 100 | > 100
10 | C=C(C(=O)O)[C@@H]1C[C@@H](OC(C)=O)[C@]2(C)CC/C=C(\C)CCC[C@H](C)[C@H](O)[C@@H]1O2 | > 100 | > 100 | > 100 | 48.4 | > 100 | > 100 | – | > 100 | > 100 | > 100 | > 100 | 72.1 | > 100 | > 100 | 73.4 | > 100 | 65.9 | > 100 | > 100 | > 100
11 | Nc1nc(Cl)c(N)c(NCC2(CO)CCCC2)n1 | 35.9 | > 100 | – | > 100 | > 100 | > 100 | > 100 | > 100 | > 100 | – | > 100 | > 100 | > 100 | > 100 | > 100 | > 100 | > 100 | > 100 | > 100 | > 100
12 | COC(=O)CC1C=CC(C)(OC)OO1 (centres undefined) | > 100 | > 100 | > 100 | 55.5 | > 100 | > 100 | > 100 | > 100 | > 100 | > 100 | > 100 | – | > 100 | > 100 | 97.9 | > 100 | > 100 | > 100 | > 100 | > 100
